Laboratory results reported in ChEMBL document CHEMBL1141819, “Antimycobacterial triterpenes from Melia volkensii” (1999).
≈ marks a conversion by molar mass, not a printed value.

tested on: Mycobacterium tuberculosis; experiment: Antimycobacterial activity against Mycobacterium tuberculosis H37Rv ATCC 27294 by radiorespirometric bioassay; type: functional

Point of comparison: CC(=O)[C@H](CCC=C(C)C)[C@@H]1[C@@H](O)C[C@]2(C)C3=CC[C@H]4C(C)(C)C(=O)CC[C@]4(C)[C@H]3CC[C@@]12C [KULONATE], MIC 16 µg/mL (≈ 34.1 µM). Against it:
- CC(C)=CCC[C@H]1C(=O)O[C@H]2C[C@]3(C)C4=C[C@@H](O)[C@H]5C(C)(C)C(=O)CC[C@]5(C)[C@H]4CC[C@@]3(C)[C@@H]21 — 4-fold lower, 4 µg/mL (≈ 8.53 µM)
- CC(C)=CCC[C@H]1C(=O)O[C@H]2C[C@]3(C)C4=CC[C@H]5C(C)(C)C(=O)CC[C@]5(C)[C@H]4C[C@@H](O)[C@@]3(C)[C@@H]21 — the same, 16 µg/mL (≈ 34.1 µM)
